# Reference: ChEMBL document CHEMBL6096630, “Enhancing therapeutic efficacy in homologous recombination-proficient pancreatic cancer via the combination of PARP1-PROTAC and a BRD4 inhibitor” (Bioorg Med Chem, 2024)
# The source made the active and inactive calls. The rule behind the calls is not given here.
# Assays:
# PANC-1 [1] = experiment: Induction of apoptosis in human PANC-1 cells at 2 uM incubated for 48 hrs in presence of JQ1 by Annexin V-FITC/PI staining based flow cytometry relative to control; type: functional
# PANC-1 [2] = experiment: Induction of apoptosis in human PANC-1 cells at 2 uM incubated for 48 hrs by Annexin V-FITC/PI staining based flow cytometry relative to control; type: functional
# BXPC-3 = experiment: Synergistic antiproliferative activity against human BXPC-3 cells expressing wild-type BRCA assessed as combination index at 2:1 ratio of compound:JQ1 incubated for 5 days by CCK8 assay; type: functional; conditions: time 5 day
# PANC-1 [3] = experiment: Induction of DNA damage in human PANC-1 cells assessed as decrease in BRCA1 level at 1 uM in presence of OL by Western blot analysis; type: functional, cell-based
# [4] = Toxicity in BALB/c mouse xenografted with human PANC-1 cells assessed as pathological changes in spleen at 20 mg/kg, ip for 4 weeks administered for 5 days consecutively and 2 days without treatment on every week in presence of OL by H and E staining based analysis; type: organism-based; conditions: in vivo, 672 h
# PANC-1 [5] = experiment: Induction of apoptosis in human PANC-1 cells assessed as viable cells at 1 uM incubated for 48 hrs in presence of OL by Annexin V-FITC/PI staining based flow cytometry (reference value: 91.64 %); type: functional; conditions: read-out: Activity
# PANC-1 [6] = experiment: Antitumor activity against human PANC-1 cells xenografted in BALB/c mouse at 20 mg/kg, ip for 4 weeks administered for 5 days consecutively and 2 days without treatment on every week in presence of OL relative to control; type: functional; conditions: PANC-1, 672 h, read-out: TGI
# PANC-1 [7] = experiment: Induction of cell cycle arrest in human PANC-1 cells assessed as accumulation at G2 phase at 1 uM incubated for 24 hrs by PI staining based flow cytometry (reference value: 9.36 %); type: functional
# [8] = Toxicity in BALB/c mouse xenografted with human PANC-1 cells assessed as drug tolerance at 20 mg/kg, ip for 4 weeks administered for 5 days consecutively and 2 days without treatment on every week in presence of OL; type: organism-based; conditions: in vivo, 672 h
# PANC-1 [9] = experiment: Induction of apoptosis in human PANC-1 cells assessed as viable cells at 0.12 uM incubated for 48 hrs by Annexin V-FITC/PI staining based flow cytometry (reference value: 91.64 %); type: functional; conditions: read-out: Activity
# PANC-1 [10] = experiment: Induction of apoptosis in human PANC-1 cells assessed as late apoptotic cells at 0.5 uM incubated for 48 hrs by Annexin V-FITC/PI staining based flow cytometry (reference value: 3.87 %); type: functional
# PANC-1 [11] = experiment: Induction of cell cycle arrest in human PANC-1 cells assessed as accumulation at G1 phase at 0.5 uM incubated for 24 hrs by PI staining based flow cytometry (reference value: 51.70 %); type: functional
# PANC-1 [12] = experiment: Antitumor activity against human PANC-1 cells xenografted in BALB/c mouse assessed as inhibition of tumor weight at 20 mg/kg, ip for 4 weeks administered for 5 days consecutively and 2 days without treatment on every week in presence of OL; type: functional, organism-based
# PANC-1 [13] = experiment: Induction of cell cycle arrest in human PANC-1 cells assessed as accumulation at G0/G1 phase at 1 uM incubated for 24 hrs in presence of OL by PI staining based flow cytometry relative to control; type: functional
# PANC-1 [14] = experiment: Induction of cell cycle arrest in human PANC-1 cells assessed as accumulation at S phase at 0.25 uM incubated for 24 hrs by PI staining based flow cytometry (reference value: 38.94 %); type: functional
# PANC-1 [15] = experiment: Induction of apoptosis in human PANC-1 cells assessed as early apoptotic cells at 0.25 uM incubated for 48 hrs by Annexin V-FITC/PI staining based flow cytometry (reference value: 1.41 %); type: functional
# PANC-1 [16] = experiment: Induction of apoptosis in human PANC-1 cells assessed as early apoptotic cells at 1 uM incubated for 48 hrs by Annexin V-FITC/PI staining based flow cytometry (reference value: 1.41 %); type: functional
# PANC-1 [17] = experiment: Induction of apoptosis in human PANC-1 cells assessed as late apoptotic cells at 1 uM incubated for 48 hrs in presence of OL by Annexin V-FITC/PI staining based flow cytometry (reference value: 3.87 %); type: functional
# PANC-1 [18] = experiment: Induction of cell cycle arrest in human PANC-1 cells assessed as accumulation at S phase at 1 uM incubated for 24 hrs by PI staining based flow cytometry (reference value: 38.94 %); type: functional
# PANC-1 [19] = experiment: Anti-migration activity in human PANC-1 cells at 1 uM in presence of OL incubated for 24 hrs by wound healing assay; type: functional, cell-based
# [20] = Toxicity in BALB/c mouse xenografted with human PANC-1 cells assessed as pathological changes in liver at 20 mg/kg, ip for 4 weeks administered for 5 days consecutively and 2 days without treatment on every week in presence of OL by H and E staining based analysis; type: organism-based; conditions: in vivo, 672 h
# [21] = Toxicity in BALB/c mouse xenografted with human PANC-1 cells assessed as animal mortality at 20 mg/kg, ip for 4 weeks administered for 5 days consecutively and 2 days without treatment on every week in presence of OL; type: organism-based; conditions: in vivo, 672 h
# PANC-1 [22] = experiment: Induction of apoptosis in human PANC-1 cells assessed as early apoptotic cells at 0.12 uM incubated for 48 hrs by Annexin V-FITC/PI staining based flow cytometry (reference value: 1.41 %); type: functional
# [23] = Toxicity in BALB/c mouse xenografted with human PANC-1 cells assessed as drug tolerance at 20 mg/kg, ip for 4 weeks administered for 5 days consecutively and 2 days without treatment on every week; type: organism-based; conditions: in vivo, 672 h
# PANC-1 [24] = experiment: Induction of cell cycle arrest in human PANC-1 cells assessed as accumulation at G1 phase at 1 uM incubated for 24 hrs by PI staining based flow cytometry (reference value: 51.70 %); type: functional
# PANC-1 [25] = experiment: Induction of DNA damage in human PANC-1 cells assessed as increase in gamma-H2AX level at 0.6 to 10 uM incubated for 48 hrs by Western blot analysis; type: functional, cell-based; conditions: dose 0.6-10 µM
# [26] = molecular target: T1, Protein cereblon/Poly [ADP-ribose] polymerase 1 (Homo sapiens, UniProt P09874+Q96SW2); experiment: PROTAC activity at CRBN/PARP1 in human PANC-1 cells assessed as induction of PARP1 degradation incubated for 24 hrs by Western blot analysis; type: cell-based
# PANC-1 [27] = experiment: Anti-migration activity in human PANC-1 cells at 2 uM in presence of JQ1 incubated for 24 hrs by transwell assay relative to control; type: functional
# PANC-1 [28] = experiment: Induction of apoptosis in human PANC-1 cells at 2 uM incubated for 48 hrs in presence of JQ1 by Annexin V-FITC/PI staining based flow cytometry relative to compound treatment alone; type: functional
# [29] = molecular target: T1, Protein cereblon/Poly [ADP-ribose] polymerase 1; experiment: PROTAC activity at CRBN/PARP1 in human BXPC-3 cells assessed as induction of PARP1 degradation incubated for 24 hrs by Western blot analysis; type: cell-based
# PANC-1 [30] = experiment: Anti-invasive activity in human PANC-1 cells at 2 uM in presence of JQ1 incubated for 48 hrs by Matrigel assay relative to control; type: functional
# PANC-1 [31] = experiment: Induction of cell cycle arrest in human PANC-1 cells assessed as accumulation at G2/M phase at 2 uM incubated for 24 hrs in presence of JQ1 by PI staining based flow cytometry relative to control; type: functional
smiles,measurement,setting,value
O=C(c1cc(Cc2n[nH]c(=O)c3ccccc23)ccc1F)N1CCN(C(=O)C2CC2)CC1 [OLAPARIB],Activity,PANC-1 [1],26.9%
same,Activity,PANC-1 [2],8.1%
same,CI,BXPC-3,<1
Cc1sc2c(c1C)C(c1ccc(Cl)cc1)=N[C@@H](CC(=O)OC(C)(C)C)c1nnc(C)n1-2,Activity,PANC-1 [3],Active
same,Activity,[4],Non-toxic
same,viability at 1 µM,PANC-1 [5],68.3%
same,inhibition in vivo at 20 mg/kg,PANC-1 [6],80.7%
same,Activity,PANC-1 [7],10.75%
same,Activity,[8],Non-toxic
same,viability at 0.12 µM,PANC-1 [9],90.2%
same,Activity,PANC-1 [10],10.08%
same,Activity,PANC-1 [11],53.78%
same,inhibition,PANC-1 [12],Active
same,Activity,PANC-1 [13],12.43%
same,Activity,PANC-1 [14],38.89%
same,Activity,PANC-1 [15],4.08%
same,Activity,PANC-1 [16],6.72%
same,Activity,PANC-1 [17],21.52%
same,Activity,PANC-1 [18],26.24%
same,Activity,PANC-1 [19],Active
same,Activity,[20],Non-toxic
same,Activity,[21],Non-toxic
same,Activity,PANC-1 [22],2.83%
same,Activity,[23],Non-toxic
same,Activity,PANC-1 [24],58.49%
O=C1CCC(N2C(=O)c3cccc(NC(=O)CNCCCCCCCCCCC(=O)N4CCN(C(=O)c5cc(Cc6n[nH]c(=O)c7ccccc67)ccc5F)CC4)c3C2=O)C(=O)N1 (centres undefined),Activity,PANC-1 [25],Active
same,DC50,[26],2.55 nM
same,Activity,[26]; dose <= 10.0 µM,Dose-dependent-effect
same,Activity,PANC-1 [27],84.4%
same,Activity,PANC-1 [28],20.5%
same,DC50,[29],4.74 nM
same,Activity,[29]; dose <= 10.0 µM,Dose-dependent-effect
same,Activity,PANC-1 [30],12.4%
same,Activity,PANC-1 [31],8.3%
